Measurements: ChEMBL document CHEMBL2074448, “Transport of anthelmintic benzimidazole drugs by breast cancer resistance protein (BCRP/ABCG2)” (Drug Metab Dispos, 2005)

Columns and labels:
Assay type in all cases: functional, cell-based
Conditions in all cases: dog, mdck-ii
[1] = target: T1, Broad substrate specificity ATP-binding cassette transporter ABCG2 (Mus musculus, UniProt Q7TMS5); test: TP_TRANSPORTER: transepithelial transport of PhIP (basal to apical) in Bcrp1-expressing MDCKII cells
T1 sequence (Q7TMS5 whole entry): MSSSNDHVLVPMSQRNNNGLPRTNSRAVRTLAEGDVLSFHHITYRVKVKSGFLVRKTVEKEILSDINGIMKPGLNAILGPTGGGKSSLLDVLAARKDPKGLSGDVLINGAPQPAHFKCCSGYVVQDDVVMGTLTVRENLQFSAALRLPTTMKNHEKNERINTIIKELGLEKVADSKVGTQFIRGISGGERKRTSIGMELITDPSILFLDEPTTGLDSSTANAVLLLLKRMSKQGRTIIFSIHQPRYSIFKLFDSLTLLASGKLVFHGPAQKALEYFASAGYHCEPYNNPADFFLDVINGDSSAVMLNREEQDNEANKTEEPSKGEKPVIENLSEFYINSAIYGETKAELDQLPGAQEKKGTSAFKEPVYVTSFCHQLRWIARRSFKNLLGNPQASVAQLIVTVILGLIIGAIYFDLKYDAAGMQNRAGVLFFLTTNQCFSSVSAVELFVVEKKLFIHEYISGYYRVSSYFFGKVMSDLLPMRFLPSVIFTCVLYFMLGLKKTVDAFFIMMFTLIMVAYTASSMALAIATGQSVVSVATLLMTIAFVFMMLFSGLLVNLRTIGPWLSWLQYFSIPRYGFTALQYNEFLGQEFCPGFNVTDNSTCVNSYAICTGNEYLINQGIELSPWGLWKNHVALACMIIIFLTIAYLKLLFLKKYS

[2] = target: T1, Broad substrate specificity ATP-binding cassette transporter ABCG2; test: TP_TRANSPORTER: transepithelial transport (basal to apical) in Bcrp1-expressing MDCKII cells
[3] = target: T2, Broad substrate specificity ATP-binding cassette transporter ABCG2 (Homo sapiens, UniProt Q9UNQ0); test: TP_TRANSPORTER: transepithelial transport of PhIP (basal to apical) in BCRP-expressing MDCKII cells
T2 sequence (Q9UNQ0 whole entry): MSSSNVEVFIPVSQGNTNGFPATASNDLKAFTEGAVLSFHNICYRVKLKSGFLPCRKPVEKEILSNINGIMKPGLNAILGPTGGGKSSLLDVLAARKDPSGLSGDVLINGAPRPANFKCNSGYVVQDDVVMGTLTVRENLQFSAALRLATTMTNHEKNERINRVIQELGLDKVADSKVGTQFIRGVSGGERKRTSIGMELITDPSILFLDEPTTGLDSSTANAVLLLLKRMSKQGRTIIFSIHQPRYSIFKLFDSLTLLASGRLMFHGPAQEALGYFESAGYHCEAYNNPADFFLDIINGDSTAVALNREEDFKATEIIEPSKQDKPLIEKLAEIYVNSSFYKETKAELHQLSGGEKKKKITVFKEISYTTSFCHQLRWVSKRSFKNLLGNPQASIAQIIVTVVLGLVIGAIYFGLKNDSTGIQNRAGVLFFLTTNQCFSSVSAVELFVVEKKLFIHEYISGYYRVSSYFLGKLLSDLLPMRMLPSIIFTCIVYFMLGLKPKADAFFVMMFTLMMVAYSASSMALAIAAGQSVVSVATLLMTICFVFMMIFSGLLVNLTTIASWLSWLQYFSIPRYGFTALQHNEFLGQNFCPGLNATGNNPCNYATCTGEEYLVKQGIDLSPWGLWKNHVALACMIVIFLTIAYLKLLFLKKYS

[4] = target: T2, Broad substrate specificity ATP-binding cassette transporter ABCG2; test: TP_TRANSPORTER: transepithelial transport (basal to apical) in BCRP-expressing MDCKII cells

Row | Activity [2] | Activity [3] | Activity [4] | Compound | Activity [1]
1 | substrate [] | inhibitor [] | – | COC(=O)Nc1nc2ccc([S+]([O-])c3ccccc3)cc2[nH]1 (stereo unspecified) [OXFENDAZOLE] | inhibitor []
2 | – | – | – | COc1ccc2c3c([nH]c2c1)[C@H](CC(C)C)N1C(=O)[C@H](CCC(=O)OC(C)(C)C)NC(=O)[C@@H]1C3 | inhibitor []
3 | substrate [] | – | substrate [] | CCC[S+]([O-])c1ccc2[nH]c(NC(=O)OC)nc2c1 (stereo unspecified) [ALBENDAZOLE OXIDE] | –
